Experimental data published in article PMC8419995, “In vitro and in vivo efficacy of thiacloprid against Echinococcus multilocularis” (Parasites & Vectors, 2021).

Legend:
[1] = design: method as in PMID 21786385; conditions: cited from earlier work
[2] = test system: E. multilocularis protoscoleces; test: Protoscolex viability, 0.1% eosin exclusion test; format: cell-based, Echinococcus multilocularis
Procedure: Viable protoscoleces were cultured in Medium 199, supplemented with 1% penicillin–streptomycin, 50 μg/ml gentamicin and 4 mg/ml glucose according to a previously described method. […] PZQ was used as a positive control. The protoscoleces were cultured in an incubator at 37 °C and 5% CO2 for 7 days. Additionally, 0.1% eosin exclusion test was used to evaluate the viability of protoscoleces. To reduce the bias as much as possible, protoscolex viability was observed by two experimenters under double-blind conditions. Each experiment was conducted three times.

[3] = design: method as in PMID 32229153; conditions: mice; cited from earlier work
[4] = test system: E. multilocularis metacestodes; test: PGI assay (phosphoglucose isomerase release) on metacestode vesicles; format: cell-based, Echinococcus multilocularis
Procedure: The efficacy of thiacloprid against the E. multilocularis metacestode was evaluated by applying a phosphoglucose isomerase (PGI) assay that measures the release of the enzyme phosphoglucose isomerase upon physical impairment of metacestodes. In brief, medium without phenol red (DMEM, 1% penicillin/streptomycin sulfate, 2 mM L-glutamine) was added to the same volume of vesicles and distributed to 48-well (12–15 per vesicles) plates. Subsequently, metacestodes were incubated for 5 days with different concentrations (0, 0.06, 1.2, 2.5, 5, 10, 20, 40, 80 and 160 μM) of thiacloprid or praziquantel (PZQ), after which PGI release was quantified exactly as described in Stadelmann et al.. Triton X-100 (0.1% in PBS) was applied as a positive control (maximal release of vesicle fluid). Each condition was tested in biological triplicate. After 5 days of incubation, 200 μl medium supernatant was collected from each well and stored at − 20 °C until further measurements were performed. PGI measurements were performed as described earlier, except that an Infinite M200 PRO reader (Tecan, Männedorf, Switzerland) was used to measure the increase in absorbance at 340 nm. PGI activity was calculated using the EC50 calculator (https://www.aatbio.com/tools/ec50-calculator) from the linear regression of the enzyme reaction over time and presented as a percentage relative to the values obtained by treatment of vesicles with 0.1% Triton X-100.

[5] = test system: E. multilocularis protoscoleces and germinal cells; test: Glucose consumption (2-deoxyglucose uptake); format: cell-based, Echinococcus multilocularis
Procedure: Glucose consumption in E. multilocularis protoscoleces and germinal cells was detected using the Screen Quest Colorimetric Glucose Uptake Assay Kit (AAT Bioquest, Sunnyvale, CA, USA). The newly separated protoscoleces were washed twice with Krebs–ringer phosphate HEPES (KRPH) buffer and then resuspended in 1 ml glucose uptake buffer for 1 h. Each well contained about 200 protoscoleces. Isolated E. multilocularis germinal cells were resuspended with serum-free DMEM and cultured overnight in nitrogen at 37 °C. Germinal cells were then washed twice with KPRH buffer and resuspended in 90 μl glucose uptake buffer for 1 h. Subsequently, the protoscoleces and germinal cells were added with 10 μl thiacloprid (5 μM) for 1 h, and treated with 10 μl 2-deoxyglucose (2DG) for 1 h. The germinating cells treated with thiacloprid were labeled with mitochondria red fluorescent probe (Beyotime, Shanghai, China) and the percentage of living cells was measured by flow cytometry. The protoscoleces and germinal cells were washed twice with KRPH buffer and then lysed with 25 μl acidic lysis buffer in an Eppendorf tube (EP) for 30 min. A neutralizing buffer was added to each well and left at room temperature for 20 min to neutralize the lysate. […] Lastly, the mixture was transferred to a 96-well cell culture plate and the absorbance was measured at 570 nm using an Infinite M200 PRO reader (Tecan). […]

[6] = Toxicity of thiacloprid in vivo (serum biochemistry, blood cells, histopathology); conditions: normal BALB/c mice, 6 weeks; for Alanine aminotransferase / Albumin / Alkaline phosphatase / Aspartate aminotransferase / Blood urea nitrogen / Creatinine / Direct bilirubin / Globulin / Indirect bilirubin / Total bilirubin / Total protein: serum; for Hemoglobin / PLT / RBC / WBC: whole blood
Procedure: Based on the previous thiacloprid dose concentration, we selected 15 mg/kg and 30 mg/kg thiacloprid concentrations to evaluate the toxicity in vivo [35]. The toxicity of thiacloprid was assessed in normal BALB/c mice. Normal mice were randomly divided into three groups and received the following treatments (6 animals per group): The control group was not administered any drug; the Thia15 group and Thia30 group received thiacloprid orally (15 mg/kg/day and 30 mg/kg/day). After 6 weeks of treatment, blood samples were collected from the orbital sinus of mice under anesthesia before euthanasia, which were preserved in EDTA-K2 anticoagulant tubes for white blood cell (WBC), hemoglobin (Hb) and platelet (PLT) analysis. For assessing biochemical indicators, blood samples were incubated in anticoagulant-free tubes at 37 °C for 1 h, followed by 3500 rpm centrifugation for 10 min. The isolated serum samples were used to detect relative levels of alanine aminotransferase (ALT), aspartate aminotransferase (AST), total bilirubin (TBIL), direct bilirubin (DBIL), indirect bilirubin (IBIL), total protein (TP), albumin (ALB), alkaline phosphatase (ALP), creatinine (CREA) and blood urea nitrogen (BUN). Subsequently, mice were sacrificed for harvesting the liver and kidneys, which were fixed in 4% paraformaldehyde, prepared for hematoxylin–eosin (HE) staining and observed under a Zeiss Vert.A1 microscope.
Tissues from experimental animals were washed in PBS and fixed in 4% paraformaldehyde at room temperature for […]. On the next day, they were dehydrated, embedded, and sliced into 5-μm sections. After dewaxing and dehydrating, sections were stained with hematoxylin for 2–5 min, and re-stained with eosin for 15 s. They were sealed with neutral gum and observed under a BX51 microscope (Olympus, Tokyo, Japan).

## N#C/N=C1\SCCN1Cc1ccc(Cl)nc1 [thiacloprid]
[1]
  Dose that can cause hepatocellular necrosis and hydropic degeneration: 22.5 mg/kg
[2]; 1.2 μM
  Effect on protoscolex viability: no significant effect
[2]; 5 μM for 4 days
  Dead protoscoleces: 47.33 ± 4.04%
[3]
  Dose that induced obvious hepatocellular hypertrophy and cytoplasm degeneration: more than 108 mg/kg
[4]; 20 μM, 5 days and 12 days, active if exceeding 20% relative PGI release
  Activity in PGI assay screening: showed activity
[4]; Echinococcus multilocularis, 120 h, read-out: EC50 against E. multilocularis metacestode by the PGI assay
  EC50: 4.54 ± 1.1 µM
[5]; 5 μM, 1 h
  Uptake of 2-DG by protoscoleces and germinal cells: reduced uptake
[5]; treatment for 1 h
  Viability of protoscoleces and germinal cells: not affected
[6]; 15 mg/kg/day orally
  Alanine aminotransferase: 66.00 ± 5.33 U/L
  Albumin: 28.95 ± 2.35 g/L
  Alkaline phosphatase: 57.67 ± 5.43 U/L
  Aspartate aminotransferase: 164.70 ± 36.71 U/L
  Blood urea nitrogen: 7.23 ± 1.87 mmol/L
  Creatinine: 16.08 ± 1.87 μM/L
  Direct bilirubin: 0.13 ± 0.05 μM/L
  Globulin: 36.67 ± 4.71 g/L
  Indirect bilirubin: 0.44 ± 0.17 μM/L
  Total bilirubin: 0.60 ± 0.10 μM/L
  Total protein: 65.90 ± 4.76 g/L
  Hemoglobin: 203.00 ± 11.15 g/L
  PLT: 613.70 ± 145.00 10^9/L
  RBC: 11.39 ± 1.48 10^12/L
  WBC: 11.69 ± 1.30 10^9/L
[6]; 30 mg/kg/day orally
  Alanine aminotransferase: 67.50 ± 5.01 U/L
  Albumin: 29.72 ± 1.49 g/L
  Alkaline phosphatase: 58.50 ± 7.82 U/L
  Aspartate aminotransferase: 180.50 ± 45.71 U/L
  Blood urea nitrogen: 7.15 ± 0.47 mmol/L
  Creatinine: 15.18 ± 2.44 μM/L
  Direct bilirubin: 0.19 ± 0.16 μM/L
  Globulin: 37.77 ± 4.81 g/L
  Indirect bilirubin: 0.42 ± 0.19 μM/L
  Total bilirubin: 0.59 ± 0.16 μM/L
  Total protein: 65.82 ± 4.39 g/L
  Hemoglobin: 206.0 ± 9.93 g/L
  PLT: 670.80 ± 150.20 10^9/L
  RBC: 9.58 ± 0.82 10^12/L
  WBC: 12.72 ± 1.75 10^9/L
[6]; 15 and 30 mg/kg/day orally
  Histopathological examination of liver and kidneys (HE staining): did not show obvious histopathological changes or injury
